Target: T1, Human KLK1 (Homo sapiens, UniProt P06870)
T1 construct: purchased Callbiochem (Calbiochem)
Assay: Determination of the IC50 for KLK1 (fluorogenic substrate H-DVal-Leu-Arg-AFC)
Assay type: biochemical
Details: 37° C.
Procedure, shortened: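 Test compound at various concentrations was incubated with human KLK1 and the fluorogenic substrate H-DVal-Leu-Arg-AFC at 37° C. Absorbance change at 410 nm gave the initial reaction rate, from which IC50 was obtained.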

T1 sequence (P06870 25-262): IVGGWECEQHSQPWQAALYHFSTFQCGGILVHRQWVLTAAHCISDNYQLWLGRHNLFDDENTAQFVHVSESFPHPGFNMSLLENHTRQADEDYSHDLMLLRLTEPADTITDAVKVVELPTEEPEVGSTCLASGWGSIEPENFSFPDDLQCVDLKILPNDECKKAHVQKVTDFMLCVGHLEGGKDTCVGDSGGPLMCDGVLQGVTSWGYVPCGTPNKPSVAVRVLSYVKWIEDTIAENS

IC50 [µM] | Structure (SMILES)
0.012 | CC(C)N(C)CC(=O)N[C@@H](Cc1ccc(Cl)c(Cl)c1)C(=O)NCc1ccc(N)nc1 [Example 150, (S)—N-(6-Amino-pyridin-3-ylmethyl)-3-(3,4-dichloro-phenyl)-2-[2-(isopropyl-methyl-amino)-acetylamino]-propionamide]
0.0177 | CC(C)N(C)[C@H](C)C(=O)N[C@@H](Cc1ccc(Cl)c(Cl)c1)C(=O)NCc1ccc(N)nc1 [Example 151, (R)—N-[(S)-1-[(6-Amino-pyridin-3-ylmethyl)-carbamoyl]-2-(3,4-dichloro-phenyl)-ethyl]-2-(isopropyl-methyl-amino)-propionamide]
0.0057 | CN(CC(=O)N[C@@H](Cc1ccc(Cl)c(Cl)c1)C(=O)NCc1ccc(N)nc1)Cc1ccccc1 [Example 152, (S)—N-(6-Amino-pyridin-3-ylmethyl)-2-[2-(benzyl-methyl-amino)-acetylamino]-3-(3,4-dichloro-phenyl)-propionamide]
0.0699 | CN(C)CC(=O)N[C@@H](Cc1ccc(Cl)c(Cl)c1)C(=O)NCc1ccc(N)nc1 [Example 153, (S)—N-(6-Amino-pyridin-3-ylmethyl)-3-(3,4-dichloro-phenyl)-2-(2-dimethylamino-acetylamino)-propionamide]
0.216 | CC(C)CN(C)CC(=O)N[C@@H](Cc1ccc(Cl)c(Cl)c1)C(=O)NCc1ccc(N)nc1 [Example 154, (S)—N-(6-Amino-pyridin-3-ylmethyl)-3-(3,4-dichloro-phenyl)-2-[2-(isobutyl-methyl-amino)-acetylamino]-propionamide]
0.0633 | CCC(C)[C@H](C(=O)N[C@@H](Cc1ccc(Cl)c(Cl)c1)C(=O)NCc1ccc(N)nc1)N(C)C(C)C (stereo partly drawn) [Example 155, (R)-2-(Isopropyl-methyl-amino)-3-methyl-pentanoic acid [(S)-1-[(6-amino-pyridin-3-ylmethyl)-carbamoyl]-2-(3,4-dichloro-phenyl)-ethyl]-amide]
0.0806 | CC(C)N(C)CC(=O)N[C@@H](Cc1ccc(F)c(F)c1)C(=O)NCc1ccc(N)nc1 [Example 156, (S)—N-(6-Amino-pyridin-3-ylmethyl)-3-(3,4-difluoro-phenyl)-2-[2-(isopropyl-methyl-amino)-acetylamino]-propionamide]
0.291 | CC(C)CN(C)CC(=O)N[C@@H](Cc1ccc(F)c(F)c1)C(=O)NCc1ccc(N)nc1 [Example 168, (S)—N-(6-Amino-pyridin-3-ylmethyl)-3-(3,4-difluoro-phenyl)-2-[2-(isobutyl-methyl-amino)-acetylamino]-propionamide]

Second part, the compound before the results:

Structure (SMILES) | IC50 [µM]
CN1Cc2ccccc2C[C@@H]1C(=O)N[C@@H](Cc1ccc(F)c(F)c1)C(=O)NCc1ccc(N)nc1 [Example 149, (R)-2-Methyl-1,2,3,4-tetrahydro-isoquinoline-3-carboxylic acid [(S)-1-[(6-amino-pyridin-3-ylmethyl)-carbamoyl]-2-(3,4-difluoro-phenyl)-ethyl]-amide] | 0.0368
CCCN(CCC)CC(=O)N[C@@H](Cc1ccc(F)c(F)c1)C(=O)NCc1ccc(N)nc1 [Example 158, (S)—N-(6-Amino-pyridin-3-ylmethyl)-3-(3,4-difluoro-phenyl)-2-(2-dipropylamino-acetylamino)-propionamide] | 0.114
CC(C)CN(CC(=O)N[C@@H](Cc1ccc(F)c(F)c1)C(=O)NCc1ccc(N)nc1)CC(C)C [Example 159, (S)—N-(6-Amino-pyridin-3-ylmethyl)-3-(3,4-difluoro-phenyl)-2-(2-diisobutylamino-acetylamino)-propionamide] | 0.165
Nc1ccc(CNC(=O)[C@H](Cc2ccc(F)c(F)c2)NC(=O)CNCCc2ccccc2)cn1 [Example 160, (S)—N-(6-Amino-pyridin-3-ylmethyl)-3-(3,4-difluoro-phenyl)-2-(2-phenethylamino-acetylamino)-propionamide] | 0.185
CN(CCc1ccccc1)CC(=O)N[C@@H](Cc1ccc(F)c(F)c1)C(=O)NCc1ccc(N)nc1 [Example 161, (S)—N-(6-Amino-pyridin-3-ylmethyl)-3-(3,4-difluoro-phenyl)-2-[2-(methyl-phenethyl-amino)-acetylamino]-propionamide] | 0.0935
CN(C/C=C/c1ccccc1)CC(=O)N[C@@H](Cc1ccc(F)c(F)c1)C(=O)NCc1ccc(N)nc1 [Example 162, (S)—N-(6-Amino-pyridin-3-ylmethyl)-3-(3,4-difluoro-phenyl)-2-{2-[methyl-((E)-3-phenyl-allyl)-amino]-acetylamino}-propionamide] | 0.0381
CN(CC(=O)N[C@@H](Cc1ccc(F)c(F)c1)C(=O)NCc1ccc(N)nc1)Cc1ccc(Cl)cc1 [Example 163, (S)—N-(6-Amino-pyridin-3-ylmethyl)-2-{2-[(4-chloro-benzyl)-methyl-amino]-acetylamino}-3-(3,4-difluoro-phenyl)-propionamide] | 0.0565
CN(CC(=O)N[C@@H](Cc1ccc(F)c(F)c1)C(=O)NCc1ccc(N)nc1)Cc1cccc(Cl)c1 [Example 164, (S)—N-(6-Amino-pyridin-3-ylmethyl)-2-{2-[(3-chloro-benzyl)-methyl-amino]-acetylamino}-3-(3,4-difluoro-phenyl)-propionamide] | 0.345
CN(CC(=O)N[C@@H](Cc1ccc(F)c(F)c1)C(=O)NCc1ccc(N)nc1)Cc1ccccc1Cl [Example 165, (S)—N-(6-Amino-pyridin-3-ylmethyl)-2-{2-[(2-chloro-benzyl)-methyl-amino]-acetylamino}-3-(3,4-difluoro-phenyl)-propionamide] | 0.0835
COc1ccc(CN(C)CC(=O)N[C@@H](Cc2ccc(F)c(F)c2)C(=O)NCc2ccc(N)nc2)cc1 [Example 166, (S)—N-(6-Amino-pyridin-3-ylmethyl)-3-(3,4-difluoro-phenyl)-2-{2-[(4-methoxy-benzyl)-methyl-amino]-acetylamino}-propionamide] | 0.726
CCCCN(C)CC(=O)N[C@@H](Cc1ccc(F)c(F)c1)C(=O)NCc1ccc(N)nc1 [Example 167, (S)—N-(6-Amino-pyridin-3-ylmethyl)-2-[2-(butyl-methyl-amino)-acetylamino]-3-(3,4-difluoro-phenyl)-propionamide] | 0.258
CN(CC(=O)N[C@@H](Cc1ccc(F)c(F)c1)C(=O)NCc1ccc(N)nc1)CC1CCCCC1 [Example 169, (S)—N-(6-Amino-pyridin-3-ylmethyl)-2-[2-(cyclohexylmethyl-methyl-amino)-acetylamino]-3-(3,4-difluoro-phenyl)-propionamide] | 0.334
Nc1ccc(CNC(=O)[C@H](Cc2ccc(F)c(F)c2)NC(=O)CN2CCCCC2)cn1 [Example 170, (S)—N-(6-Amino-pyridin-3-ylmethyl)-3-(3,4-difluoro-phenyl)-2-(2-piperidin-1-yl-acetylamino)-propionamide] | 0.0166
Nc1ccc(CNC(=O)[C@H](Cc2ccc(F)c(F)c2)NC(=O)CN2CCOCC2)cn1 [Example 171, (S)—N-(6-Amino-pyridin-3-ylmethyl)-3-(3,4-difluoro-phenyl)-2-(2-morpholin-4-yl-acetylamino)-propionamide] | 0.0013
Nc1ccc(CNC(=O)[C@H](Cc2ccc(F)c(F)c2)NC(=O)CN2CCc3ccccc3C2)cn1 [Example 172, (S)—N-(6-Amino-pyridin-3-ylmethyl)-3-(3,4-difluoro-phenyl)-2-(2-3,4-dihydro-1H-isoquinolin-2-yl-acetylamino)-propionamide] | 0.0127

— patent publication US20100076015A1, “Aminopyridine Derivatives” (VANTIA LIMITED, priority 2008, published 2010)
